In assay [1] the target is T1, CDK4 protein kinase (GST-CDK4(1-303 end)) (Homo sapiens, UniProt P11802).
T1 construct: GST-CDK4(1-303 end); GST (N)
The experiment in a line: CDK4 protein kinase activity, Caliper mobility shift assay. The class given is biochemical. The conditions noted are these: substrate Peptide FAM-P8, 28° C. for 3 h. On the procedure: (§1) Activity Assay: The CDK4 protein kinase activity was measured using the Caliper mobility shift assay (see J. Biomol. Screen, 2009, PP31). The test compound was dissolved in DMSO and diluted with a kinase buffer solution (20 mM HEPES-pH 7.5, 0.01% Triton X-100, 10 mM MgCl2, 2 mM DTT) and 5 μL of the compound at 5-fold final concentration of reaction dissolved in 10% DMSO was added in a 384-well plate. The compound-free control well was 5 μL of 10% DMSO, and the no-activity control well was 5 μL of kinase buffer. 10 μL of a 2.5-fold diluted CDK4 enzyme solution (GST-CDK4(1-303 end)) was added and incubated at room temperature for 10 min, and then 10 μL of the 2.5-fold diluted substrate solution Peptide FAM-P8 was added. The reaction was stopped by adding 25 μL of stop solution after incubation at 28° C. for 3 h, and the conversion rate data was read on a Caliper EZ Reader II (Caliper Life Sciences) and the conversion rate was converted to inhibition rate data according to above method. Among them, the inhibition rate %=(max−conversion)/(max−min)×100%.

Assay [2] addresses T2, CDK6 protein kinase (GST-CDK6(1-326 end)) (Homo sapiens, UniProt Q00534).
T2 construct: GST-CDK6(1-326 end); GST (N)
The experiment in a line: CDK6 protein kinase activity, Caliper mobility shift assay. It is filed as biochemical. The conditions noted are these: substrate Peptide FAM-P8, 28° C. for 3 h. On the procedure: as §1, with “CDK6” for “CDK4”, “(GST-CDK6(1-326” for “(GST-CDK4(1-303”

For five compounds, IC50 results are on record in patent US10351578B2, “Heterocyclic-substituted pyridinopyrimidinone derivative as CDK inhibitor and use thereof” (Shanghai Xunhe Pharmaceutical Technology Co. Ltd., priority 2016, dated 2019).

As a reminder, the IC50 is the concentration that gives 50% inhibition.

Molecules are shown by their SMILES.

T1 sequence (P11802 whole entry): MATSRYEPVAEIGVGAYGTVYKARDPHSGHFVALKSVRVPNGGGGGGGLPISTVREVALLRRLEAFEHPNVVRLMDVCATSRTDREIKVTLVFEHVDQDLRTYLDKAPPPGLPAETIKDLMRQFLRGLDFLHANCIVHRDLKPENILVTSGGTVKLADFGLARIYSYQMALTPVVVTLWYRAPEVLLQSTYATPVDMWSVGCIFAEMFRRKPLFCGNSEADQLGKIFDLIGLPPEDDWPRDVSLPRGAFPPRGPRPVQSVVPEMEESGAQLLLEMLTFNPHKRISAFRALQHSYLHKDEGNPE
T1 sequence (P30281 whole entry partner): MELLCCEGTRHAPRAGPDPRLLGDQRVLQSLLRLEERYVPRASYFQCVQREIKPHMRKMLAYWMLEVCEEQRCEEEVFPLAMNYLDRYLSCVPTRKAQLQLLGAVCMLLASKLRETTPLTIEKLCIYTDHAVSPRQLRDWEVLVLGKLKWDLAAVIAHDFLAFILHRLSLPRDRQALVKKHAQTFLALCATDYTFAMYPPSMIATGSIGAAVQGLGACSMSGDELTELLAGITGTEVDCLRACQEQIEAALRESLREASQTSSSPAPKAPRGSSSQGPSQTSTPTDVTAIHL
T2 sequence (Q00534 whole entry): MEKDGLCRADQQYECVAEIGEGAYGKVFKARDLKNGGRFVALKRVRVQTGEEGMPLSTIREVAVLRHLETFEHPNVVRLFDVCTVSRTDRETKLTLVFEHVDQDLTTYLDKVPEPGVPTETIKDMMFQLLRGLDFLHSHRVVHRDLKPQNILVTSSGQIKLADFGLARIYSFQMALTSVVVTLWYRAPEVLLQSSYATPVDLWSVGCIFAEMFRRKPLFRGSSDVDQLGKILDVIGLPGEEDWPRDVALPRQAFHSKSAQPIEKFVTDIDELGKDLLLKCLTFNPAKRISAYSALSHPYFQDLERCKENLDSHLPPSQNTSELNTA
T2 sequence (P30281 whole entry partner): as the sequence (P30281 whole entry partner) above

For the compound `NC(=O)C1Oc2cnc(Nc3ccc(N4CCNCC4)cn3)nc2N(C2CCCC2)C1=O` (stereo not shown) [Compound I-34, 6-carboxamide-8-cyclopentyl-2-(5-(1-piperazinyl)-pyridin-2-amino)-6H-pyrimido[5,4-b][1,4]oxazin-7(8H)-one], the IC50 in assay [1] and in assay [2] was at most 0.02 µM each time.

On to `CC1(C)Oc2cnc(Nc3ccc(N4CCNCC4)cn3)nc2N(c2ccccc2)C1=O` [Compound I-35, 6,6-dimethyl-8-phenyl-2-(5-(1-piperazinyl)-pyridin-2-amino)-6H-pyrimido[5,4-b][1,4]oxazin-7(8H)-one], for which the IC50 in assay [1] and in assay [2] was 0.02 to 0.1 µM in each case.

In the case of `CC1(C)Oc2cnc(Nc3ccc(N4CCNCC4)cn3)nc2N(c2ccc(Cl)cc2)C1=O` [Compound I-36, 6,6-dimethyl-8-(4-chlorophenyl)-2-(5-(1-piperazinyl)-pyridin-2-amino)-6H-pyrimido[5,4-b][1,4]oxazin-7(8H)-one], the IC50 in assay [1] and in assay [2] was at most 0.02 µM in each case.

Turning to `CCC(CC)N1C(=O)C(C)(C)Oc2cnc(Nc3ccc(N4CCNCC4)cn3)nc21` [Compound I-37, 6,6-dimethyl-8-(3-pentyl)-2-(5-(1-piperazinyl)-pyridin-2-amino)-6H-pyrimido[5,4-b][1,4]oxazin-7(8H)-one], the half-maximal inhibitory concentration (IC50) in assay [1] was at most 0.02 µM; in assay [2], 0.02 to 0.1 µM.

With `CCC(CC)N1C(=O)C(C)(C)Oc2cnc(Nc3ccc(CN4CCN(CC)CC4)cn3)nc21` [Compound I-38, 6,6-dimethyl-8-(3-pentyl)-2-(5-(4-ethyl-1-piperazinyl)methyl-pyridine-2-amino)-6H-pyrimido[5,4-b][1,4]oxazin-7(8H)-one], the results for the concentration for half-maximal inhibition (IC50) in assay [1] and in assay [2] were at most 0.02 µM and 0.02 to 0.1 µM, respectively.
